Data: patent US12201610B2, “Compositions comprising aticaprant” (Janssen Pharmaceuticals, Inc., priority 2022, dated 2025)

System: subjects with MDD
Experiment: SHAPS total score / anhedonia level (Example 6)
Assay type: in vivo, human
Conditions: for SHAPS Total Score Change from Baseline LSMean (SE) / SHAPS Total Score LSMean Difference (SE) Treatment Placebo: MMRM; for SHAPS Total Score Effect Size: negative favors aticaprant
From the text: To assess a potential effect on anhedonia, an anhedonia scale may be used. For example, the Snaith-Hamilton Pleasure Scale (SHAPS) analysis is a validated scale for the measurement of anhedonia. The SHAPS is a subject completed scale in which subjects score whether or not they experience pleasure in performing a list of activities or experiences. The SHAPS is a self-reported 14-item instrument, developed for the assessment of hedonic capacity. Subjects score whether they experience pleasure in performing a list of activities or experiences. Subjects can rate the answers as 1-4 where 1 indicates “Definitely agree”, 2 indicates “Agree”, 3 indicates “Disagree” and 4 indicates “Definitely disagree”. The subject's item responses are summed to provide a total score ranging from 14 to 56. A higher total SHAPS score indicates higher levels of current anhedonia. Physician/clinical judgment can be used to assess anhedonia separately or in conjunction with an anhedonia scale.
In some embodiments, the patient has moderate anhedonia. In other embodiments, the patient has severe anhedonia. An assessment of moderate or severe anhedonia is typically determined physician/clinical judgment and/or by one or more tests that provide insight into whether a patient has anhedonia. For example, the severity of the anhedonia may be determined using the SHAPS method. In some embodiments, a patient with moderate or severe anhedonia is considered to have a high level of anhedonia. For example, a patient with a SHAPS score of 38 or greater is considered to have moderate to severe anhedonia that can be considered a high level of anhedonia. In some embodiments, a high level of anhedonia is reflected by a SHAPS score of at least about 40, about 42, about 44, about 46, about 48, about 50, about 52, about 54, about 56, […]. A patient with mild or no anhedonia would be considered to have a low level of anhedonia that is assessed by physician/clinical judgment and/or one or more tests. For example, a patient with a SHAPS score of less than 38 is considered to have low anhedonia. In certain embodiments, a patient with mild anhedonia may have a SHAPS score of 20 to less than 38, for example, a SHAPS score of 20 to about 36, about 22 to about 36, about 24 to about 36, about 26 to about 36, about 26 to about 34, about 26 to about 32, about 26 to about 30, about 26 to about 28, about 28 to about 36, about 28 to about 36, about 30, to about 36, about 32 to about 36, about 34 to about 36, about 20 to about 34, about 22 to about 34, about 24 to about 34, about 26 to about 32, about 26 to about 30, about 26 to about 28, about 28 to about 36, about 28 to about 34, about 28 to about 32, about 28 to about 30, about 30 to about 36, about 30 to about 34, about 30 to about 32, about 32 to about 36, about 32 to about 34, or about 34 to about 36. Typically, a SHAPS score of less than 20 can be considered to correspond to normal hedonic functioning, and for purposes of this disclosure, would fall into the low category of anhedonia, e.g., a SHAPS score of less than 38.
iii. To investigate the effect of aticaprant versus placebo on depression related anhedonia as assessed by the SHAPS.
• (i) Depression: Montgomery-Åsberg Depression Rating Scale (MADRS), Clinical Global Impression-Severity (CGI-S), Symptoms of Major Depressive Disorder Scale (SMDDS), and Self-assessment of treatment experience (SATE) • (ii) Anhedonia: Snaith-Hamilton Pleasure Scale (SHAPS) • (iii) Anxiety: Structured Interview Guide for the Hamilton Anxiety scale (SIGH-A) and HAM-A6 • (iv) Effects on Cognition: The Cognitive and Physical Functioning Questionnaire (CPFQ) • (v) Safety assessments
Changes in SHAPS total score were analyzed with the same MMRM model used for MADRS total score. The estimated LS Mean difference with 80% 2-sided CI at treatment week 6 between aticaprant and placebo was −0.7 [−1.81, 0.41]. See, FIG. 7 and Tables 28 and 29 and FIG. 18. The corresponding p-value was 0.419.

[1] = eITT Analysis Set, Treatment Baseline
[2] = eITT Analysis Set, Treatment Week 1
[3] = eITT Analysis Set, Treatment Week 3
[4] = eITT Analysis Set, Treatment Week 4
[5] = eITT Analysis Set, Treatment Week 5
[6] = eITT Analysis Set, Treatment Week 6
[7] = eITT, Treatment Week 1, 10 mg adjunctive to SSRI/SNRI
[8] = eITT, Treatment Week 3, 10 mg adjunctive to SSRI/SNRI
[9] = eITT, Treatment Week 4, 10 mg adjunctive to SSRI/SNRI
[10] = eITT, Treatment Week 5, 10 mg adjunctive to SSRI/SNRI
[11] = eITT, Treatment Week 6, 10 mg adjunctive to SSRI/SNRI
[12] = fITT Analysis Set, Baseline/Day 22, Table 42
[13] = fITT Analysis Set, Treatment Baseline
[14] = fITT Analysis Set, Treatment Week 1
[15] = fITT Analysis Set, Treatment Week 3
[16] = fITT Analysis Set, Treatment Week 4
[17] = fITT Analysis Set, Treatment Week 5
[18] = fITT Analysis Set, Treatment Week 6

Cc1cc(C)cc(C2CCCN2Cc2ccc(Oc3ccc(C(N)=O)cc3F)cc2)c1 (centres unmarked) [aticaprant, 3-fluoro-4-4-2-(3,5-dimethylphenyl)pyrrolidin-1-yl-methylphenoxybenzamide]
SHAPS total score estimated LS mean difference between aticaprant and placebo, MMRM (Treatment Week 6, population not given, follows Table 29 (fITT)): −0.8 | Frequency of subjects: High Level of Anhedonia (SHAPS Total Score >= 38), % [1]: (43.33%) | Frequency of subjects: Low Level of Anhedonia (20 <= SHAPS Total Score < 38), % [1]: 56.67% | SHAPS Total Score Change from Baseline Mean (SD) [2]: −1.9 | SHAPS Total Score Mean (SD) [2]: 34.5 | SHAPS Total Score Change from Baseline LSMean (SE) [2]: −1.7 | SHAPS Total Score LSMean Difference (SE) Treatment Placebo [2]: −0.8 (0.86) | SHAPS Total Score Change from Baseline Mean (SD) [3]: −3.4 | SHAPS Total Score Mean (SD) [3]: 33.0 | SHAPS Total Score Change from Baseline LSMean (SE) [3]: −3.2 | SHAPS Total Score LSMean Difference (SE) Treatment Placebo [3]: −1.4 (0.86) | SHAPS Total Score Change from Baseline Mean (SD) [4]: −4.5 | SHAPS Total Score Mean (SD) [4]: 32.0 | SHAPS Total Score Change from Baseline LSMean (SE) [4]: −4.3 | SHAPS Total Score LSMean Difference (SE) Treatment Placebo [4]: −1.4 (0.86) | SHAPS Total Score Change from Baseline Mean (SD) [5]: −4.3 | SHAPS Total Score Mean (SD) [5]: 32.4 | SHAPS Total Score Change from Baseline LSMean (SE) [5]: −4.0 | SHAPS Total Score LSMean Difference (SE) Treatment Placebo [5]: −0.5 (0.87) | Frequency of subjects: High Level of Anhedonia (SHAPS Total Score >= 38), % [6]: (13.56%) | Frequency of subjects: Low Level of Anhedonia (20 <= SHAPS Total Score < 38), % [6]: 81.36% | Frequency of subjects: No Anhedonia (SHAPS Total Score < 20), % [6]: 5.08% | SHAPS Total Score Change from Baseline Mean (SD) [6]: −4.6 | SHAPS Total Score Mean (SD) [6]: 31.9 | SHAPS Total Score Change from Baseline LSMean (SE) [6]: −4.4 | SHAPS Total Score LSMean Difference (SE) Treatment Placebo [6]: −0.7 (0.87) | SHAPS Total Score Mean Change from Baseline (SD) [7]: −1.9 (4.30) | SHAPS Total Score Mean Change to Placebo (SD pooled) [7]: −0.6 (3.77) | SHAPS Total Score Effect Size (eITT, Treatment Week 1, vs placebo): −0.15 | SHAPS Total Score Mean Change from Baseline (SD) [8]: −3.4 (5.25) | SHAPS Total Score Mean Change to Placebo (SD pooled) [8]: −1.2 (4.96) | SHAPS Total Score Effect Size (eITT, Treatment Week 3, vs placebo): −0.25 | SHAPS Total Score Mean Change from Baseline (SD) [9]: −4.5 (5.89) | SHAPS Total Score Mean Change to Placebo (SD pooled) [9]: −1.2 (5.21) | SHAPS Total Score Effect Size (eITT, Treatment Week 4, vs placebo): −0.23 | SHAPS Total Score Mean Change from Baseline (SD) [10]: −4.3 (6.07) | SHAPS Total Score Mean Change to Placebo (SD pooled) [10]: −0.4 (5.49) | SHAPS Total Score Effect Size (eITT, Treatment Week 5, vs placebo): −0.08 | SHAPS total score estimated LS mean difference between aticaprant and placebo, MMRM (eITT, Treatment Week 6): −0.7 | SHAPS Total Score Mean Change from Baseline (SD) [11]: −4.6 (6.23) | SHAPS Total Score Mean Change to Placebo (SD pooled) [11]: −0.4 (5.66) | Frequency of subjects: Anhedonia (SHAPS Total Score >=20), % [12]: 98.8% | Frequency of subjects: No Anhedonia (SHAPS Total Score < 20), % [12]: 1.2% | Frequency of subjects: High Level of Anhedonia (SHAPS Total Score >= 38), % [13]: 36.14% | Frequency of subjects: Low Level of Anhedonia (20 >= SHAPS Total Score <38), % [13]: 62.65% | Frequency of subjects: No Anhedonia (SHAPS Total Score < 20), % (fITT Analysis Set, Treatment Baseline, Table 44): 1.2% | SHAPS Total Score Mean (SD) [14]: 32.9 | SHAPS Total Score Mean Change to Placebo (SD pooled) [14]: −0.6 (3.82) | SHAPS Total Score Change from Baseline Mean (SD) (fITT Analysis Set, Treatment Week 1 (Table 29)): −2.0 | SHAPS Total Score Mean Change from Baseline (SD) (fITT Analysis Set, Treatment Week 1 (Table 30)): −2.0 (4.05) | SHAPS Total Score Change from Baseline LSMean (SE) [14]: −1.9 | SHAPS Total Score LSMean Difference (SE) Treatment Placebo [14]: −1.0 (0.72) | SHAPS Total Score Effect Size [14]: −0.15 | SHAPS Total Score Mean (SD) [15]: 31.9 | SHAPS Total Score Mean Change to Placebo (SD pooled) [15]: −1.0 (5.09) | SHAPS Total Score Change from Baseline Mean (SD) (fITT Analysis Set, Treatment Week 3 (Table 29)): −3.2 | SHAPS Total Score Mean Change from Baseline (SD) (fITT Analysis Set, Treatment Week 3 (Table 30)): −3.2 (5.07) | SHAPS Total Score Change from Baseline LSMean (SE) [15]: −3.1 | SHAPS Total Score LSMean Difference (SE) Treatment Placebo [15]: −1.4 (0.73) | SHAPS Total Score Effect Size [15]: −0.20 | SHAPS Total Score Mean (SD) [16]: 30.8 | SHAPS Total Score Mean Change to Placebo (SD pooled) [16]: −1.2 (5.08) | SHAPS Total Score Change from Baseline Mean (SD) (fITT Analysis Set, Treatment Week 4 (Table 29)): −4.2 | SHAPS Total Score Mean Change from Baseline (SD) (fITT Analysis Set, Treatment Week 4 (Table 30)): −4.2 (5.70) | SHAPS Total Score Change from Baseline LSMean (SE) [16]: −4.1 | SHAPS Total Score LSMean Difference (SE) Treatment Placebo [16]: −1.6 (0.73) | SHAPS Total Score Effect Size [16]: −0.23 | SHAPS Total Score Mean (SD) [17]: 30.9 | SHAPS Total Score Mean Change to Placebo (SD pooled) [17]: −0.5 (5.24) | SHAPS Total Score Change from Baseline Mean (SD) (fITT Analysis Set, Treatment Week 5 (Table 29)): −4.3 | SHAPS Total Score Mean Change from Baseline (SD) (fITT Analysis Set, Treatment Week 5 (Table 30)): −4.3 (5.70) | SHAPS Total Score Change from Baseline LSMean (SE) [17]: −4.1 | SHAPS Total Score LSMean Difference (SE) Treatment Placebo [17]: −0.8 (0.73) | SHAPS Total Score Effect Size [17]: −0.09 | Frequency of subjects: High Level of Anhedonia (SHAPS Total Score >= 38), % [18]: 10.39% | Frequency of subjects: Low Level of Anhedonia (20 >= SHAPS Total Score <38), % [18]: 80.52% | Frequency of subjects: No Anhedonia (SHAPS Total Score < 20), % [18]: 9.09% | SHAPS Total Score Mean (SD) [18]: 30.5 | SHAPS Total Score Mean Change to Placebo (SD pooled) [18]: −0.5 (5.45) | SHAPS Total Score Change from Baseline Mean (SD) (fITT Analysis Set, Treatment Week 6 (Table 29)): −4.7 | SHAPS Total Score Mean Change from Baseline (SD) (fITT Analysis Set, Treatment Week 6 (Table 30)): −4.7 (5.91) | SHAPS Total Score Change from Baseline LSMean (SE) [18]: −4.5 | SHAPS Total Score LSMean Difference (SE) Treatment Placebo [18]: −0.8 (0.73) | SHAPS Total Score Effect Size [18]: −0.08 | SHAPS total score mean change from treatment baseline (SD) (fITT, Treatment Week 6): −4.7 (5.91) | SHAPS total score observed effect size (fITT, Treatment Week 6): 0.08
